Measured values: ChEMBL document CHEMBL3046233, “Synthesis and anticonvulsant activity of 4-(2-phenoxyphenyl)semicarbazones” (Med Chem Res, 2009)

Assays:
Rattus norvegicus [1] = experiment: Anticonvulsant activity in Rattus norvegicus Wistar (rat) pentylenetetrazole-induced kindling model assessed as seizure latency time at 30 mg/kg, ip administered 30 min before pentylenetetrazole challenge; format: functional; details: route intraperitoneal
Rattus norvegicus [2] = experiment: Anticonvulsant activity in Rattus norvegicus Wistar (rat) pentylenetetrazole-induced kindling model assessed as seizure time at 30 mg/kg, ip administered 30 min before pentylenetetrazole challenge; format: functional; details: route intraperitoneal
Rattus norvegicus [3] = experiment: Anticonvulsant activity in Rattus norvegicus Wistar (rat) pentylenetetrazole-induced kindling model assessed as seizure time at 100 mg/kg, ip administered 30 min before pentylenetetrazole challenge; format: functional; details: route intraperitoneal
Rattus norvegicus [4] = experiment: Anticonvulsant activity in Rattus norvegicus Wistar (rat) pentylenetetrazole-induced kindling model assessed as seizure time at 200 mg/kg, ip administered 30 min before pentylenetetrazole challenge; format: functional; details: route intraperitoneal
Rattus norvegicus [5] = experiment: Anticonvulsant activity in Rattus norvegicus Wistar (rat) pentylenetetrazole-induced kindling model assessed as seizure latency time at 100 mg/kg, ip administered 30 min before pentylenetetrazole challenge; format: functional; details: route intraperitoneal
Rattus norvegicus [6] = experiment: Anticonvulsant activity in Rattus norvegicus Wistar (rat) pentylenetetrazole-induced kindling model assessed as seizure latency time at 200 mg/kg, ip administered 30 min before pentylenetetrazole challenge; format: functional; details: route intraperitoneal
Rattus norvegicus [7] = experiment: Neurotoxicity in Rattus norvegicus Wistar (rat) at 300 mg/kg, ip by rotarod test; format: toxicity, organism-based; parameters: dose 300 mg/kg, route intraperitoneal; details: in vivo

| SMILES | Time (Rattus norvegicus [1]) | Time (Rattus norvegicus [2]) | other results |
| --- | --- | --- | --- |
| O=C(N/N=C/c1cccnc1)Nc1ccccc1Oc1ccccc1 | 903 s | 40.4 s |  |
| CCCC(CCC)C(=O)[O-].[Na+] [VALPROATE SODIUM] |  |  | Time (Rattus norvegicus [3]): 40 s; Time (Rattus norvegicus [4]): 26.5 s; Time (Rattus norvegicus [5]): 817.42 s; Time (Rattus norvegicus [6]): 900.62 s |
| Cc1ccc(/C=N/NC(=O)Nc2ccccc2Oc2ccccc2)cc1 | 418.71 s | 59.28 s |  |
| COc1ccc(OC)c(/C=N/NC(=O)Nc2ccccc2Oc2ccccc2)c1 | 150.16 s | 54.83 s |  |
| C/C(=N\NC(=O)Nc1ccccc1Oc1ccccc1)c1ccc([N+](=O)[O-])cc1 | 404.25 s | 64.25 s |  |
| C/C(=N\NC(=O)Nc1ccccc1Oc1ccccc1)c1ccc(C)cc1 | 405.42 s | 71.42 s |  |
| CSc1ccc(/C(C)=N/NC(=O)Nc2ccccc2Oc2ccccc2)cc1 | 189.4 s | 75 s |  |
| C/C(=N\NC(=O)Nc1ccccc1Oc1ccccc1)c1ccccc1O | 532.4 s | 33.2 s |  |
| O=C(N/N=C/c1cccc([N+](=O)[O-])c1)Nc1ccccc1Oc1ccccc1 | 636.2 s | 40.2 s |  |
| O=C(N/N=C/c1cccc(Br)c1)Nc1ccccc1Oc1ccccc1 | 229.33 s | 81 s |  |
| O=C(N/N=C/c1ccncc1)Nc1ccccc1Oc1ccccc1 | 969.83 s | 31.16 s | Activity (Rattus norvegicus [7]): Non-toxic |
| CSc1ccc(/C=N/NC(=O)Nc2ccccc2Oc2ccccc2)cc1 | 244.75 s | 66.5 s |  |
| O=C(N/N=C/c1ccccn1)Nc1ccccc1Oc1ccccc1 | 1161.6 s | 23 s | Activity (Rattus norvegicus [7]): Non-toxic |
| C/C(=N\NC(=O)Nc1ccccc1Oc1ccccc1)c1cccc(Br)c1 | 209.66 s | 85.33 s |  |
| C/C(=N\NC(=O)Nc1ccccc1Oc1ccccc1)c1ccccc1[N+](=O)[O-] | 639.2 s | 40.6 s |  |
| C/C(=N\NC(=O)Nc1ccccc1Oc1ccccc1)c1ccccc1 | 293.75 s | 48.75 s |  |
| O=C(N/N=C/c1ccc([N+](=O)[O-])cc1)Nc1ccccc1Oc1ccccc1 | 293.75 s | 79.75 s |  |
| O=C(N/N=C/c1ccccc1)Nc1ccccc1Oc1ccccc1 | 508.5 s | 48.5 s |  |
| C/C(=N\NC(=O)Nc1ccccc1Oc1ccccc1)c1cccc([N+](=O)[O-])c1 | 832.2 s | 32.2 s |  |
| COc1ccc(OC)c(/C(C)=N/NC(=O)Nc2ccccc2Oc2ccccc2)c1 | 110 s | 69.16 s |  |
| O=C(N/N=C/c1ccccc1[N+](=O)[O-])Nc1ccccc1Oc1ccccc1 | 858.66 s | 36.5 s |  |
